Laboratory results published in patent US11376271B1, “Methods of ameliorating the effects of alcoholic liver damage” (FULGENT LIFE INC., priority 2021, dated 2022).

How the values were obtained:
[1] = tested on: mammalian cell lines (insulinogenic (MING), neuronlike (LN229), muscle-like (C2C12), and normal hepatocyte (AML12) cells); test: NAD+ levels in mammalian cell lines treated with NADH, NRH or NMN; settings: 1 mM, 3 h; all cell lines
Method: Also, cells were cultured as follows. LN229, Neuro2a, and C2C12 cells were grown in Dulbecco's modified Eagle's medium (DMEM) supplemented with 10% fetal bovine serum (FBS), 100 units/ml penicillin, and 100 μg/ml streptomycin. […] AML12 cells were cultured in a 1:1 mixture of DMEM high glucose/Ham's F-12 with I-glutamine and supplemented with 10% FCS, 15 mM HEPES, 40 ng/ml dexamethasone, 0.005 mg/ml human recombinant insulin, 5 ng/ml sodium selenite and 0.005 mg/ml transferrin (Sigma Aldrich).
The cells were seeded in 6-well plates until they reached approximately 80% confluence. […] The number of cells was counted by hemocytometer and trypan blue. The harvested cells were then pelleted at 3000×g for 3 min. After eliminating the residual medium, the cells were lysed with 7% perchloric acid to preserve NAD+, and then neutralized with NaOH (2 M) and K2HPO4 (500 mM).

male C57BL/6J mice [2] = test: Blood ethanol and acetaldehyde levels after ethanol administration
male C57BL/6J mice [3] = test: Loss of righting reflex (LORR) test; type: in vivo; settings: 500 mg/kg intragastric 15 min prior to 8 ml/kg ethanol
Description: Alcohol acts on the central nervous system, causing various behavioral and/or cognitive problems, e.g., loss of righting reflex (LORR). […] LORR is defined as the phenomenon that mice cannot correct themselves three times within 30 seconds after alcohol intake. LORR latency is defined as the time from drinking to occurrence of LORR, and LORR duration is defined as the time from occurrence to recovery of LORR.
Fisher's exact probability test was used to analyze the loss of righting reflex (LORR) in the mice. […] The data representing LORR latency and duration are expressed as mean±SD (n=10); *p<0.05 vs alcohol group.

AML12 cells [4] = test: Rescue from hydrogen peroxide (HP) genotoxicity: cell survival and NAD+ level; type: cell-based; settings: 3 h
Method: Because the increasing extent of NAD+ concentration is of interest, whether NADH can improve the cell survival rate under the stressful conditions of depletion of NAD+ was also assessed. To that end, as genotoxicity can lead to DNA damage, activate poly(ADP-ribose) polymerases and induce NAD+ depletion, genotoxicity was tested. Strong genotoxicity will lead to severe consumption of NAD+ by cells, resulting in cell death. To test genotoxicity, AML12 cells were treated with 500 μM hydrogen peroxide (HP) for 3 hours in the presence or absence of 1 mM NADH, and then the cells were counted and NAD+ was detected in the samples co-treated with NADH (1 mM) or its vehicle. FIG. 4A is a graph comparing the cell survival rate of the HP treated cells, NADH treated cells, and the HP+NADH treated cells relative to a control. And FIG. 4B is a graph comparing the NAD+ level of the HP treated cells, NADH treated cells, and the HP+NADH treated cells relative to a control. The cell survival rates and cellular NAD+ levels in FIGS. 4A-B are expressed as mean±SD.
The effects of NADH and NMN at a lower concentration (250 μM) on AML12 cells was also tested in a separate assay. Specifically, AML12 cells were treated with 500 μM HP in the presence or absence of 250 μm NADH or NMN for 3 h. FIG. 4C is a graph comparing the cell survival rate of the HP treated cells, HP+NADH treated cells, and the HP+NMN treated cells relative to a control. And FIG. 4D is a graph comparing the NAD+ level of the HP treated cells, HP+NADH treated cells, and the HP+NMN treated cells relative to a control. The cell survival rate and cellular NAD+ levels in FIGS. 4C-D are expressed as mean±SD.

hepatocyte AML12 cells = test: NADH dose-response and time course of NAD+ levels in AML12 cells; type: cell-based
Method: Also, cells were cultured as follows.
A dose-response curve was also determined for hepatocyte AML12 cells. These cells were treated with rising concentrations of NADH for 3 h. […] (n=3). *, p<0.01; **, p<0.001 vs Control.
Time course studies for NADH action were also carried out. AML12 cells were incubated with NADH for various incubation times (0-12 hr) and then harvested, and the NAD+ levels were assessed. […] (n=3). *, p<0.01; **, p<0.001 vs Control.

male C57BL/6J mice [5] = test: Liver MDA and SOD after acute alcohol ingestion; type: in vivo; settings: 500 mg/kg intragastric 15 min prior to 8 ml/kg ethanol; liver 6 h after alcohol
Method: Six hours after treatment with alcohol, liver tissues were taken for determination of MDA and SOD. Liver samples were prepared with homogenization in cold isotonic saline. The homogenate (10%, w/v) was centrifuged at 4500 g for 10 minutes and the supernatant was used for biochemical analysis. The MDA, SOD and TG levels were determined with commercial kits (Abcam, #ab118970; Thermofisher, #EIASODC and Abcam, ab65336) according to the manufacturer's instructions. The results were normalized to the total protein determined by BCA Protein Assay Kit (Abcam, #ab102536) according to the manufacturer's instructions.

AML12 cells [6] = test: Apoptosis markers Annexin V and Caspase 3/7 by flow cytometry; type: cell-based; settings: 1 mM, 24 hours
Method: To assess this toxicity, C2C12, Neuro2a and AML12 cells were treated with 1 mM NADH for 24 hours, and then the total cell numbers were measured. […] The cells were stained with trypan blue and then counted with a hemocytometer. […] The Annexin V/PI staining kit and Caspases3/7/SYTOX dead cell staining kit (Life Technologies) were used and cells were counted with a BD FACSCelesta™ flow cytometer. The quadrants of apoptotic cells, necrotic cells and living cells were identified and quantified according to the manufacturer's instructions.
To examine apoptotic markers, AML12 cells were stained for Annexin V and Caspase 3/7, and cells were counted with a flow cytometer. […] Data are expressed as mean±SD, n=3. Quadrants with live cells (brown), necrotic cells (gray) and apoptotic cells (blue) were quantified.

male C57BL/6J mice [7] = test: Plasma AST and ALT in acute alcohol-induced hepatotoxicity; type: in vivo
Method: Liver marker enzymes in plasma, such as aspartate transaminase (AST) and alanine aminotransferase (ALT), are known as sensitive biochemical markers of early liver damage. […] Six hours after treatment with alcohol, blood samples were taken to detect biochemical indexes. […] The control group was given the same amount of normal saline in place of the ethanol. […] The plasma levels of AST and ALT were determined by collecting blood samples in an anti-coagulant test tube and centrifuging at 1500 rpm for 10 minutes to attain plasma. The plasma AST and ALT activity was determined with a commercial kit (from Sigma-Aldrich) based on the manufacturer's instructions.

male C57BL/6J mice [8] = test: Liver NAD+/NADH ratio after ethanol administration; type: in vivo; settings: 500 mg/kg intragastric 15 min before 8 ml/kg ethanol (40% w/v)
Method: The ratio of NAD^+/NADH in the liver was then measured at different times after ethanol administration. The NAD^+/NADH ratios were detected using a NAD+/NADH Quantification Colorimetric Kit (ABIN411692) in compliance with the manufacturer's instructions. Fresh tissue lysate was prepared from snap cryo-frozen liver samples stored in […], and 20 mg liver was homogenized with NAD^+/NADH extraction buffer (400 μL). In order to quickly remove enzymes that may consume NADH, the samples were filtered through a 10 kD molecular weight cut-off filter before detection. […] Concentrations were calculated using an NADH standard curve.

[9] = 500 mg/kg intragastric 15 min before 8 ml/kg ethanol (40% w/v)
[10] = 500 μM HP + 250 μM compound, AML12 cells
[11] = 500 mg/kg intragastric 30 min prior to 8 ml/kg ethanol (40% w/v), blood 6 h after alcohol
[12] = 40% ethanol every 24 h for 3 days, then 500 mg/kg every day for three days

SMILES: NC(=O)C1=CN([C@@H]2O[C@H](COP(=O)(O)OP(=O)(O)OC[C@H]3O[C@@H](n4cnc5c(N)ncnc54)C(O)C3O)C(O)C2O)C=CC1 (some centres unmarked) [NADH, nicotinamide adenine dinucleotide (NAD)+hydrogen (H)]
- induced NAD+ levels compared with NMN [1]: much higher than those induced by NMN
- acetaldehyde in the blood two hours after alcohol administration (male C57BL/6J mice [2]; [9]): significantly reduced
- blood acetaldehyde levels within two hours after ethanol administration (male C57BL/6J mice [2]; [9]): significantly increased
- ethanol in the blood (male C57BL/6J mice [2]; 500 mg/kg oral 15 min before 8 ml/kg ethanol (40% w/v), 30 minutes after ethanol): significantly reduced
- LORR duration relative to the model group (male C57BL/6J mice [3]): one third
- LORR duration vs model group (male C57BL/6J mice [3]): decrease
- LORR latency vs model group (male C57BL/6J mice [3]): prolonged
- average LORR latency relative to the model group (male C57BL/6J mice [3]): 4 times
- share of mice that had a righting reflex after drinking alcohol (male C57BL/6J mice [3]): less than half
- LORR rate vs model group (male C57BL/6J mice [3]; model group 100%): decrease
- average LORR latency (male C57BL/6J mice [3]; model group 14.76 minutes): 60.24 min
- LORR duration (male C57BL/6J mice [3]; model group about 798.68 minutes): 265.00 min
- effect on NAD+ levels under HP (AML12 cells [4]; [10]): protective effect
- effect on cell survival under HP (AML12 cells [4]; [10]): protective effect
- NAD+ level in HP co-treated cells (AML12 cells [4]; 500 μM HP + 1 mM NADH, AML12 cells): remained high
- cell survival rate under HP+NADH treatment (AML12 cells [4]; 500 μM HP + 1 mM NADH, AML12 cells (HP alone 12%)): ~72%
- concentration of NAD+ relative to the control group (hepatocyte AML12 cells; 50 μM NADH, 3 h): approximately 4 times
- concentration of NAD+ relative to the untreated control group (saturation) (hepatocyte AML12 cells; 500 μM NADH, 3 h): 10 times
- time after which full NAD+ increasing effects were present (hepatocyte AML12 cells; 1 mM NADH): 3 h
- time at which NAD+ concentration-increasing effects appeared (hepatocyte AML12 cells; 1 mM NADH): 0.5 h
- NAD+ after 12 hours of treatment (hepatocyte AML12 cells; 1 mM NADH, 12 h): remained at a high concentration
- MDA content in the liver (male C57BL/6J mice [5]): significantly reduce
- SOD activity in the liver (male C57BL/6J mice [5]): increase
- Annexin V or caspase 3/7 apoptosis markers vs control (AML12 cells [6]): no significant changes
- plasma ALT level, pre-treatment (male C57BL/6J mice [7]; [11]): significantly reduce
- plasma AST level, pre-treatment (male C57BL/6J mice [7]; [11]): significantly reduce
- plasma ALT level, treatment after alcohol exposure (male C57BL/6J mice [7]; [12]): significantly reduce
- plasma AST level, treatment after alcohol exposure (male C57BL/6J mice [7]; [12]): significantly reduce
- ethanol-induced decrease of liver NAD+/NADH redox ratio (male C57BL/6J mice [8]): significantly inhibited this decrease
